Assay results taken from PMC6133293 (SLAS discovery : advancing life sciences R & D, 2018).

Target: G551D-CFTR (Homo sapiens, UniProt P13569, G551D)
Assay: short-circuit current in FRT cells, positive control potentiator
Format: cell-based

Chain of G551D-CFTR (P13569 whole entry G551D): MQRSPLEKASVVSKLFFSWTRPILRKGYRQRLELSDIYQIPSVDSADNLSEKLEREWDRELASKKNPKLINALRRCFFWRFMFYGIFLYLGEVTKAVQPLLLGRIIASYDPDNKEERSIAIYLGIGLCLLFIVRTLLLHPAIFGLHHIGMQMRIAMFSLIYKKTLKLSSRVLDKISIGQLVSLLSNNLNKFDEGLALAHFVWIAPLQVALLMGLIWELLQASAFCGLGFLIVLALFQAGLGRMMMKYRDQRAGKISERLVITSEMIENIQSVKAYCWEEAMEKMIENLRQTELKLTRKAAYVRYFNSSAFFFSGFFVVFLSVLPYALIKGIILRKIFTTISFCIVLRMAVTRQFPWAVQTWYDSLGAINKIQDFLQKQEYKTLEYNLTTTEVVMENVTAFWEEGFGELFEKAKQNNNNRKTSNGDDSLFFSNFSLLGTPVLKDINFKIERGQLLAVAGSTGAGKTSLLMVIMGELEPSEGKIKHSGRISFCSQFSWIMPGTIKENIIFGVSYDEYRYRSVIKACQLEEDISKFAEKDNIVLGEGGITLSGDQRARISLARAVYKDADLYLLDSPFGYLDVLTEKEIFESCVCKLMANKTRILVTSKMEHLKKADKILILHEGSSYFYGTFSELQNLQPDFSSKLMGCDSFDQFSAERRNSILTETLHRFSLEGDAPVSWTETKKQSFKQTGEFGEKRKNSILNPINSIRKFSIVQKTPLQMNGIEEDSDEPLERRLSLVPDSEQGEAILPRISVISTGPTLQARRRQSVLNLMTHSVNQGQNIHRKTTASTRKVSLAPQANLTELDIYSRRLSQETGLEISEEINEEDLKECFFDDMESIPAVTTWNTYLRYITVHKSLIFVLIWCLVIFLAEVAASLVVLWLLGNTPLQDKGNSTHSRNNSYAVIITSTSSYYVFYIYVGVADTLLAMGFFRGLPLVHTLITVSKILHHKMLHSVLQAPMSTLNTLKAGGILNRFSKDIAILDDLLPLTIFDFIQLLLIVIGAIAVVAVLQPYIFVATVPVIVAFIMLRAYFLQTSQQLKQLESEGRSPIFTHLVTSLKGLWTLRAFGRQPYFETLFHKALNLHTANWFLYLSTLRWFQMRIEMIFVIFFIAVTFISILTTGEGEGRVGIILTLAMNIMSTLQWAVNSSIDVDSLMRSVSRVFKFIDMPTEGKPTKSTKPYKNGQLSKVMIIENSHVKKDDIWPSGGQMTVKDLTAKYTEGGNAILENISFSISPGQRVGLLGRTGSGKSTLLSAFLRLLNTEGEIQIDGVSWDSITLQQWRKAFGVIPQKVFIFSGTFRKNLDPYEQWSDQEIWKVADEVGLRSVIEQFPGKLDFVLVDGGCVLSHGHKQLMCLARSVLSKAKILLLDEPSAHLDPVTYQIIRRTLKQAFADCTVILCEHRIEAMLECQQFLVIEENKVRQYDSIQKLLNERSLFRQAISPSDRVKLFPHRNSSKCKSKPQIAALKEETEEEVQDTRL

Question: How did the “short-circuit current in FRT cells, positive control potentiator” value turn out when CC(C)(C)c1cc(C(C)(C)C)c(NC(=O)c2c[nH]c3ccccc3c2=O)cc1O [VX-770] was run?
Answer: A-01 did not activate G551D-CFTR at high concentration, with VX-770 shown as the positive control
